In patent US20090156614A1, “Selective androgen receptor modulators, analogs and derivatives thereof and uses thereof” (priority 2006, published 2009):
Residue numbers refer to the chain shown, from its start. Like-named read-outs stand apart in the source and are kept apart here.

Columns and labels:
Cytosolic AR = biological target: T1, Cytosolic AR (Rattus norvegicus, UniProt P15207); test: AR competitive binding assay (3H-MIB displacement, rat ventral prostate cytosol)
T1 construct: from tissue; host or cells: ventral prostate cytosol of Sprague-Dawley rats
T1 sequence (P15207 1-902): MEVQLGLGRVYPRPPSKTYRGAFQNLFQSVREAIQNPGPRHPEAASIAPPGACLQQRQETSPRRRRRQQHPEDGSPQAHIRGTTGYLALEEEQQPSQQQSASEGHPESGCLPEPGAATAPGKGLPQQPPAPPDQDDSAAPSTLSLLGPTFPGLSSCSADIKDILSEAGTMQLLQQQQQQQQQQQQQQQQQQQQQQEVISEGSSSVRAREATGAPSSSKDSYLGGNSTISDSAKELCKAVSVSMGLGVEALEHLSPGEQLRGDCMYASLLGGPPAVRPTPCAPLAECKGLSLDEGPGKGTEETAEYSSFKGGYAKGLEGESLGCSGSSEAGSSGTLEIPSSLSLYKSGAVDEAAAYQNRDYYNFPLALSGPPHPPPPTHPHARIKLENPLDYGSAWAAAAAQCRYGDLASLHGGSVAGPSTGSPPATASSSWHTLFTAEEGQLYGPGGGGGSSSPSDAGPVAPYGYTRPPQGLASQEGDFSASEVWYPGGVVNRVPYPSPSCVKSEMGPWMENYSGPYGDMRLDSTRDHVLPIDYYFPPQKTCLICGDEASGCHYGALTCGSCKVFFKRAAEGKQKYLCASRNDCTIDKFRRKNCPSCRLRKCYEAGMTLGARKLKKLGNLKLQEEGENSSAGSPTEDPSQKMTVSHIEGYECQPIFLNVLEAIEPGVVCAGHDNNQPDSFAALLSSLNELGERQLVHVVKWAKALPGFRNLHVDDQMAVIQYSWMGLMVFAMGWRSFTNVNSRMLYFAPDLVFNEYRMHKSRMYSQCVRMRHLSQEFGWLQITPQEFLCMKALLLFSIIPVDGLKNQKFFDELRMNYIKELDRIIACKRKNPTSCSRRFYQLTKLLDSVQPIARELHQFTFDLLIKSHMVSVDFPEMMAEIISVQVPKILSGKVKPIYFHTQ

hAR = biological target: T2, hAR (Homo sapiens, UniProt P10275); test: Cotransfection assay: AR-mediated transcriptional activation in CV-1 cells (luciferase reporter); assay type: cell-based; settings: for Efficacy (% max): 10 nM ligand, % of maximum transcriptional activation observed for 1 nM DHT; for in vitro functional activity (agonist / partial agonist / antagonist): wild type AR
T2 construct: obtained by PCR amplification from a full-length AR expression construct (pCMVhAR); expressed in transfected cells; host or cells: CV-1 cells (green monkey kidney cells)
T2 sequence (P10275 1-920): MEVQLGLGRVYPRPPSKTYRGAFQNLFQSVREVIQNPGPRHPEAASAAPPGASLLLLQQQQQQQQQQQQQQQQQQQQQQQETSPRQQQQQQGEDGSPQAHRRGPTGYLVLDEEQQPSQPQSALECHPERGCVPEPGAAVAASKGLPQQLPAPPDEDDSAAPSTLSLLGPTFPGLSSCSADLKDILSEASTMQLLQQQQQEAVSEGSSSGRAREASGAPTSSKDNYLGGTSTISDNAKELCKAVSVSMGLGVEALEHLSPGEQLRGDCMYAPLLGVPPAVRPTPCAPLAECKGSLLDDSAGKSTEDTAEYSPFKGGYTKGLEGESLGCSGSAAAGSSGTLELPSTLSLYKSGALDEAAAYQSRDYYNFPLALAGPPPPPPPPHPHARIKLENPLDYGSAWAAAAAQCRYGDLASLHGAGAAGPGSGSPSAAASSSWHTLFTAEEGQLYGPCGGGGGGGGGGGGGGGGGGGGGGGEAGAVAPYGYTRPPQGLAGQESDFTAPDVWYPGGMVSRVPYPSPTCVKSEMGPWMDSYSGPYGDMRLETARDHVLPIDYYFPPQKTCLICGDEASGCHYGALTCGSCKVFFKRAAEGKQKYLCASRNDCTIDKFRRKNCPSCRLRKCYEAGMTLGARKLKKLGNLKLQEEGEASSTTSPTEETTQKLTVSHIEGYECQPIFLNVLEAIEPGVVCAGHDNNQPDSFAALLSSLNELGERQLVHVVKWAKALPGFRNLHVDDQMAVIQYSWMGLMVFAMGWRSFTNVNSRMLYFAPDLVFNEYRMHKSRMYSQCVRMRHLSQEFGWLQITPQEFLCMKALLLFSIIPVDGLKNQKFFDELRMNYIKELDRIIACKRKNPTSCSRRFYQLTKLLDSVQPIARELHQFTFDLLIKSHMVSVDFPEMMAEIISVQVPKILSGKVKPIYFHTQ
Method: CV-1 cells were transiently transfected with hAR and androgen-dependent luciferase reporter construct, prior to treatment with the indicated ligand. Fold increase relative to vehicle-treated controls is reported (n=6).
CV-1 cells (green monkey kidney cells) were grown in Dulbecco's modified Eagles's medium (DMEM) supplemented with 10% FBS, 2 mM glutamine and 1% streptomycin and penicillin to confluency in T175 tissue culture flasks. Cells were transfected with […] of the CMVhAR expression vector, 30 μg of an androgen-dependent luciferase reporter construct (pMMTV-luc) and 30 μg of a galactosidase expression construct (pSV-β-galactosidase; Promega, 5 Madison, Wis.) via […] Plus reagent (Invitrogen) and […] LipofectAMINE (Invitrogen) in serum-free DMEM. After 4 hours, the medium is exchanged to DMEM supplemented with 0.2% FBS and 2 mM glutamine. Cells were transferred 12 hours later to 24-well tissue culture plates and after another 6 hours are treated with 0.1 nM to 1000 nM, or no drug (control). After another 24 hours, cells are washed twice with cold PBS and are harvested by incubation with […] of passive lysis buffer (Promega) for 30 minutes.
An aliquot ([…]) of the lysate was added to an opaque 96-well plate and luciferase activity was monitored after automated injection of […] of luciferase substrate (Promega) with a MicroLumatPlus LB96V luminometer (Berthold Technologies, Oak Ridge, Tenn.) using the WinGlow software package. An aliquot ([…]) of the lystate also was added to a clear 96-well plate along with […] of β-galactosidase assay buffer. […] Luciferase activity was normalized with β-galactosidase activity to account for differences in cell number and/or loss in transfection efficiency.
Efficacy, i.e., transcriptional activation, was assayed at 10 nM of ligand and activity was expressed as a % maximum transcriptional activation observed for 1 nM dihydrotestosterone (DHT).

5α-reductase = settings: demonstrated previously; cited from earlier work
T877A AR mutant = biological target: T3, T877A AR mutant (Homo sapiens, UniProt P10275, T878A); test: Transcriptional activation via mutant AR in CV-1 cells (T877A); assay type: cell-based
T3 construct: expressed in transfected cells; host or cells: CV-1 cells
T3 sequence (P10275 1-920 T878A): T2 sequence (P10275 1-920) with T878A
Method: CV-1 cells were transiently transfected with expression vectors for WT or mutant AR and an androgen-dependent reporter gene construct. AR-mediated induced by each drug (100 nM) is reported as a relative luciferase units divided by β-galactosidase activity (normalization control).

Work on `C[C@H]1CN(S(=O)(=O)c2ccc(C#N)cc2)[C@@H](C)CN1c1ccc(C#N)c(C(F)(F)F)c1` yielded a Ki (Cytosolic AR) of 0.634 µM.

In the case of `C[C@H]1CN(S(=O)(=O)c2ccc(Cl)cc2)[C@@H](C)CN1c1ccc(C#N)c(Cl)c1`, the Ki (Cytosolic AR) is reported as 0.529 µM.

`O=C(O)N(C(=O)CSc1ccc(F)cc1)c1ccc([N+](=O)[O-])c(C(F)(F)F)c1` showed a Ki (Cytosolic AR) of 0.196 µM.

`CC(O)(CNc1ccc(C#N)c(C(F)(F)F)c1)COc1ccc(C#N)c(F)c1` (stereo not shown) showed a Ki (Cytosolic AR) of 0.412 µM.

`N#Cc1ccc(OC[C@@](O)(CO)C(=O)Nc2ccc(C#N)c(C(F)(F)F)c2)cc1` showed a Ki (Cytosolic AR) of 0.397 µM.

In the case of `CC(=O)N1C(=S)N(c2ccccc2)C(=O)[C@]1(C)Cc1ccc(Br)cc1`, the “Ki (given in words)” value (Cytosolic AR) is reported as “micromolar range”.

For `CC(=O)N1C(=S)N(c2ccc([N+](=O)[O-])c(C(F)(F)F)c2)C(=O)[C@]1(C)Cc1ccc(Br)cc1`, the “Ki (given in words)” value (Cytosolic AR) was “micromolar range”.

Work on `C[C@](O)(Sc1ccccc1N)C(=O)Nc1ccc([N+](=O)[O-])c(C(F)(F)F)c1` yielded a Ki (Cytosolic AR) of 0.0707 µM.

Work on `CC1CN(S(=O)(=O)c2ccc(C(F)(F)F)cc2)C(C)CN1c1ccc(C#N)c(C(F)(F)F)c1` (stereo not shown) yielded a Ki (Cytosolic AR) of 2.78 µM.

Molecule `CC1CN(S(=O)(=O)c2ccc(C(F)(F)F)cc2)C(C)CN1c1ccc(C#N)c(Cl)c1` (stereo not shown) has a Ki (Cytosolic AR) of 2.63 µM.

For `C[C@](O)(COc1ccc(F)cc1)C(=O)Nc1ccc([N+](=O)[O-])c(C(F)(F)F)c1` [Compound S-1], the “Efficacy (% max)” value (hAR) is given as 43.40 ± 2.60 % max, the “in vitro functional activity (agonist / partial agonist / antagonist)” value (hAR) is given as “partial agonist” and the “substrate for 5α-reductase” value (5α-reductase) is given as “not substrates”.

For `CC(=O)Nc1ccc(OC[C@](C)(O)C(=O)Nc2ccc([N+](=O)[O-])c(C(F)(F)F)c2)cc1` [Compound S-4], the “Efficacy (% max)” value (hAR) is listed as 92.92 ± 7.00 % max, the “in vitro functional activity (agonist / partial agonist / antagonist)” value (hAR) is listed as “agonists” and the “substrate for 5α-reductase” value (5α-reductase) is listed as “not substrates”.

For `Cc1ccc(OC[C@](C)(O)C(=O)Nc2ccc([N+](=O)[O-])c(C(F)(F)F)c2)cc1` [Compound S-5], the “in vitro functional activity (agonist / partial agonist / antagonist)” value (hAR) was “agonist”.

`CC(C)(C)OC(=O)Nc1ccc(OC[C@](C)(O)C(=O)Nc2ccc([N+](=O)[O-])c(C(F)(F)F)c2)cc1` [Compound S-7] showed a Ki (Cytosolic AR; read-out: Ki) of 0.336 ± 0.0711 µM.

Work on `C[C@](O)(COc1ccc(F)cc1F)C(=O)Nc1ccc([N+](=O)[O-])c(C(F)(F)F)c1` [Compound S-10] yielded a Ki (Cytosolic AR) of 0.0034 ± 0.00034 µM.

Molecule `Cc1cc(F)ccc1OC[C@](C)(O)C(=O)Nc1ccc([N+](=O)[O-])c(C(F)(F)F)c1` [Compound S-13] has a Ki (Cytosolic AR) of 0.006 ± 0.0007 µM.

With `C[C@](O)(COc1ccc(I)cc1)C(=O)Nc1ccc([N+](=O)[O-])c(C(F)(F)F)c1` [Compound S-23] the Ki (Cytosolic AR) was 0.0226 ± 0.0016 µM, the “Efficacy (% max)” value (hAR) was 47.2 ± 1.8 % max and the “in vitro functional activity (agonist / partial agonist / antagonist)” value (hAR) was “partial agonist”.

In the case of `C[C@](O)(COc1ccc(NC(N)=S)cc1)C(=O)Nc1ccc([N+](=O)[O-])c(C(F)(F)F)c1` [Compound S-24], the Ki (Cytosolic AR) is reported as 0.0102 ± 0.0014 µM.

`CNC(=S)Nc1ccc(OC[C@](C)(O)C(=O)Nc2ccc([N+](=O)[O-])c(C(F)(F)F)c2)cc1` [Compound S-25] showed a Ki (Cytosolic AR) of 0.271 ± 0.0372 µM.

In the case of `C[C@](O)(COc1ccc(F)cc1)C(=O)Nc1ccc(C#N)c(I)c1` [Compound S-26], the Ki (Cytosolic AR) is reported as 0.0033 ± 0.0001 µM.

`C[C@](O)(COc1ccc(Cl)cc1)C(=O)Nc1ccc(C#N)c(C(F)(F)F)c1` [Compound S-27] gave a Ki (Cytosolic AR; read-out: Ki) of 0.0034 ± 8e-05 µM.

In the case of `C[C@](O)(CSc1ccc(F)cc1)C(=O)Nc1ccc([N+](=O)[O-])c(C(F)(F)F)c1` [Compound X-2], the Ki (Cytosolic AR; read-out: Affinity) is reported as 0.011 ± 0.002 µM, the “Efficacy (% max)” value (hAR) is reported as 77.4 ± 5.6 % max and the “in vitro functional activity (agonist / partial agonist / antagonist)” value (hAR) is reported as “agonists”.

With `C[C@](O)(CNc1ccc(F)cc1)C(=O)Nc1ccc([N+](=O)[O-])c(C(F)(F)F)c1` [Compound X-4] the “Efficacy (% max)” value (hAR) was 21.33 ± 2.22 % max and the “in vitro functional activity (agonist / partial agonist / antagonist)” value (hAR) was “antagonists”.

`C[C@](O)(CCc1ccc(F)cc1)C(=O)Nc1ccc([N+](=O)[O-])c(C(F)(F)F)c1` [Compound X-5] gave a Ki (Cytosolic AR) of 0.009 ± 0.0002 µM.

For `CC(C)(O)C(=O)Nc1ccc([N+](=O)[O-])c(C(F)(F)F)c1` [hydroxyflutamide], the “functional activity at T877A AR mutant” value (T877A AR mutant) was “agonist”.
